Source: PubChem BioAssay AID1963433 (Molecular Pharmacology Branch, DTP, NCI, 2024)

System: 772245-204-R-J1-PDC complex spheroid growth
Test: Anticancer human tumor 772245-204-R-J1-PDC patient-derived rhabdomyosarcoma cell line growth inhibition [Asc]
Settings: for IC50: curve of first compound; for viability, T/C: stronger effect = lower value
Method in brief: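 Concentration series start at each agent's clinical Cmax, or at 10 microM when none is established, and drop in half-log steps; agents are applied alone or together to complex spheroids built with HUVEC and hMSC.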
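Further: compound exposure lasted seven days.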
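Wherever viability, T/C is given: 100% = DMSO vehicle control viability.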

Which IC50 (second compound 0.1 µM) does the source give for CCN1C(C(=O)NC23CCC(C(=O)O)(CC2)CC3)C(c2cccc(Cl)c2F)C2(C(=O)Nc3cc(Cl)ccc32)C12CCCCC2 (stereo not given) + Cc1c(S(C)(=O)=O)c(-c2cc(F)cc(N3CCN(c4ccc(NS(=O)(=O)c5ccc(NC(CCN6CCC(C(=O)OCCCP(=O)(O)O)CC6)CSc6ccccc6)c(S(=O)(=O)C(F)(F)F)c5)cc4)CC3)c2)c(-c2ccc(Cl)cc2)n1C(C)C here?
The IC50 was 1300 nM.

What about the IC50 (second compound 0.316 µM) of the same compound?
Its IC50 is 405 nM.

What about the IC50 (second compound 1 µM) of the same compound?
The IC50 was 25.8 nM.

What about the IC50 (second compound 3.16 µM) of the same compound?
The IC50 was < 9.49 nM.

And the IC50 (second compound 10 µM)?
Its IC50 is < 9.49 nM.

And the viability, T/C (second compound 0.1 µM, first compound 0.00949 µM)?
Its viability, T/C is 80%.

What about the viability, T/C (second compound 0.1 µM, first compound 0.03 µM) of the same compound?
The viability, T/C was 84.5%.

What about the viability, T/C (second compound 0.1 µM, first compound 0.0949 µM) of the same compound?
Its viability, T/C is 71.5%.

What about the viability, T/C (second compound 0.1 µM, first compound 0.3 µM) of the same compound?
Its viability, T/C is 78.3%.

And the viability, T/C (second compound 0.1 µM, first compound 0.949 µM)?
Its viability, T/C is 57.6%.

And the viability, T/C (second compound 0.1 µM, first compound 3 µM)?
Its viability, T/C is 29.6%.

And the viability, T/C (second compound 0.316 µM, first compound 0.00949 µM)?
The viability, T/C was 57.2%.

And the viability, T/C (second compound 0.316 µM, first compound 0.03 µM)?
The viability, T/C was 65.5%.

What about the viability, T/C (second compound 0.316 µM, first compound 0.0949 µM) of the same compound?
The viability, T/C was 67.2%.

What about the viability, T/C (second compound 0.316 µM, first compound 0.3 µM) of the same compound?
Its viability, T/C is 51.9%.

What about the viability, T/C (second compound 0.316 µM, first compound 0.949 µM) of the same compound?
Its viability, T/C is 36.6%.

And the viability, T/C (second compound 0.316 µM, first compound 3 µM)?
The viability, T/C was 13.4%.

And the viability, T/C (second compound 1 µM, first compound 0.00949 µM)?
The viability, T/C was 58.8%.

What about the viability, T/C (second compound 1 µM, first compound 0.03 µM) of the same compound?
The viability, T/C was 49.2%.

What about the viability, T/C (second compound 1 µM, first compound 0.0949 µM) of the same compound?
The viability, T/C was 38%.

And the viability, T/C (second compound 1 µM, first compound 0.3 µM)?
Its viability, T/C is 29.3%.

And the viability, T/C (second compound 1 µM, first compound 0.949 µM)?
Its viability, T/C is 25.9%.

And the viability, T/C (second compound 1 µM, first compound 3 µM)?
Its viability, T/C is 15%.

And the viability, T/C (second compound 3.16 µM, first compound 0.00949 µM)?
Its viability, T/C is 32.1%.

And the viability, T/C (second compound 3.16 µM, first compound 0.03 µM)?
Its viability, T/C is 42%.

And the viability, T/C (second compound 3.16 µM, first compound 0.0949 µM)?
Its viability, T/C is 35.3%.

What about the viability, T/C (second compound 3.16 µM, first compound 0.3 µM) of the same compound?
The viability, T/C was 21.6%.

And the viability, T/C (second compound 3.16 µM, first compound 0.949 µM)?
Its viability, T/C is 17.2%.

What about the viability, T/C (second compound 3.16 µM, first compound 3 µM) of the same compound?
The viability, T/C was 9.63%.

What about the viability, T/C (second compound 10 µM, first compound 0.00949 µM) of the same compound?
The viability, T/C was 46.4%.

What about the viability, T/C (second compound 10 µM, first compound 0.03 µM) of the same compound?
Its viability, T/C is 48.7%.

What about the viability, T/C (second compound 10 µM, first compound 0.0949 µM) of the same compound?
The viability, T/C was 38.3%.

And the viability, T/C (second compound 10 µM, first compound 0.3 µM)?
The viability, T/C was 35.2%.

And the viability, T/C (second compound 10 µM, first compound 0.949 µM)?
Its viability, T/C is 22.1%.

What about the viability, T/C (second compound 10 µM, first compound 3 µM) of the same compound?
The viability, T/C was 4.04%.

For CNC(C)C(=O)NC1CN(S(=O)(=O)c2cccc(S(=O)(=O)N3CCC4CCC(C(=O)NC(c5ccccc5)c5ccccc5)N4C(=O)C(NC(=O)C(C)NC)C3)c2)CCC2CCC(C(=O)NC(c3ccccc3)c3ccccc3)N2C1=O (stereo not given) + Cc1c(S(C)(=O)=O)c(-c2cc(F)cc(N3CCN(c4ccc(NS(=O)(=O)c5ccc(NC(CCN6CCC(C(=O)OCCCP(=O)(O)O)CC6)CSc6ccccc6)c(S(=O)(=O)C(F)(F)F)c5)cc4)CC3)c2)c(-c2ccc(Cl)cc2)n1C(C)C, which IC50 (second compound 0.1 µM) is on record?
The IC50 was > 1000 nM.

What about the IC50 (second compound 0.316 µM) of the same compound?
The IC50 was 72 nM.

What about the IC50 (second compound 1 µM) of the same compound?
Its IC50 is < 3.16 nM.

What about the IC50 (second compound 3.16 µM) of the same compound?
Its IC50 is < 3.16 nM.

And the IC50 (second compound 10 µM)?
Its IC50 is < 3.16 nM.

What about the viability, T/C (second compound 0.1 µM, first compound 0.00316 µM) of the same compound?
The viability, T/C was 79.9%.

And the viability, T/C (second compound 0.1 µM, first compound 0.01 µM)?
Its viability, T/C is 66.3%.

What about the viability, T/C (second compound 0.1 µM, first compound 0.0316 µM) of the same compound?
Its viability, T/C is 72.7%.

And the viability, T/C (second compound 0.1 µM, first compound 0.1 µM)?
Its viability, T/C is 64.8%.

And the viability, T/C (second compound 0.1 µM, first compound 0.316 µM)?
Its viability, T/C is 63.5%.

And the viability, T/C (second compound 0.1 µM, first compound 1 µM)?
Its viability, T/C is 63%.

And the viability, T/C (second compound 0.316 µM, first compound 0.00316 µM)?
Its viability, T/C is 56.1%.

What about the viability, T/C (second compound 0.316 µM, first compound 0.01 µM) of the same compound?
The viability, T/C was 56.5%.

And the viability, T/C (second compound 0.316 µM, first compound 0.0316 µM)?
The viability, T/C was 55%.

And the viability, T/C (second compound 0.316 µM, first compound 0.1 µM)?
The viability, T/C was 45.8%.

And the viability, T/C (second compound 0.316 µM, first compound 0.316 µM)?
The viability, T/C was 45.2%.

What about the viability, T/C (second compound 0.316 µM, first compound 1 µM) of the same compound?
The viability, T/C was 44.5%.

What about the viability, T/C (second compound 1 µM, first compound 0.00316 µM) of the same compound?
The viability, T/C was 43%.

What about the viability, T/C (second compound 1 µM, first compound 0.01 µM) of the same compound?
Its viability, T/C is 53.5%.

And the viability, T/C (second compound 1 µM, first compound 0.0316 µM)?
Its viability, T/C is 37.9%.

And the viability, T/C (second compound 1 µM, first compound 0.1 µM)?
The viability, T/C was 37.1%.

And the viability, T/C (second compound 1 µM, first compound 0.316 µM)?
Its viability, T/C is 35.2%.

What about the viability, T/C (second compound 1 µM, first compound 1 µM) of the same compound?
Its viability, T/C is 39.1%.

And the viability, T/C (second compound 3.16 µM, first compound 0.00316 µM)?
The viability, T/C was 31.4%.

And the viability, T/C (second compound 3.16 µM, first compound 0.01 µM)?
The viability, T/C was 32.8%.

What about the viability, T/C (second compound 3.16 µM, first compound 0.0316 µM) of the same compound?
Its viability, T/C is 31.6%.

And the viability, T/C (second compound 3.16 µM, first compound 0.1 µM)?
The viability, T/C was 29.5%.

And the viability, T/C (second compound 3.16 µM, first compound 0.316 µM)?
Its viability, T/C is 29.8%.

What about the viability, T/C (second compound 3.16 µM, first compound 1 µM) of the same compound?
Its viability, T/C is 25%.

What about the viability, T/C (second compound 10 µM, first compound 0.00316 µM) of the same compound?
Its viability, T/C is 32.2%.

And the viability, T/C (second compound 10 µM, first compound 0.01 µM)?
Its viability, T/C is 41.5%.

What about the viability, T/C (second compound 10 µM, first compound 0.0316 µM) of the same compound?
Its viability, T/C is 31.4%.

What about the viability, T/C (second compound 10 µM, first compound 0.1 µM) of the same compound?
The viability, T/C was 25.2%.

And the viability, T/C (second compound 10 µM, first compound 0.316 µM)?
The viability, T/C was 23.7%.

And the viability, T/C (second compound 10 µM, first compound 1 µM)?
The viability, T/C was 22.3%.
